From US8357687B2, “Macrocyclic indole derivatives useful as hepatitis C virus inhibitors” (priority 2008, dated 2013)

Key:
[1] = tested on: NS5B chimeric replicon of clinical isolate 1a_H77 in Huh7-cure cells; assay: Transient replicon assay, chimeric replicon of clinical isolate 1a_H77 (CI1); assay type: cell-based, HCV genotype 1a; settings: Hepatitis C virus, 48 h, read-out: EC50-T CI1
[2] = tested on: NS5B chimeric replicon of clinical isolate 1a—6 in Huh7-cure cells; assay: Transient replicon assay, chimeric replicon of clinical isolate 1a—6 (CI2); assay type: cell-based, HCV genotype 1a; settings: Hepatitis C virus, 48 h, read-out: EC50-T CI2
[3] = tested on: wild type replicon of genotype 1b (con1b) in Huh7-cure cells; assay: Transient replicon assay, wild type replicon of genotype 1b (Con1b); assay type: cell-based, HCV genotype 1b; settings: Hepatitis C virus, transient wild type replicon genotype 1b, 48 h, luciferase, read-out: EC50-T Con1b
[4] = target: T1, HCV NS5B polymerase (NS5BΔC21) (Hepatitis C virus genotype 1b, UniProt Q9WMX2); assay: RNA-dependent RNA polymerase assay (enzyme inhibition assay); assay type: biochemical, HCV (genotype 1b consensus strain Con1)
T1 construct: NS5B (genotype 1b consensus strain Con1) lacking 21 C-terminal residues; made in house; host or cells: E. coli Rosetta 2 (DE3)
Source text: The coding sequence for NS5B (genotype 1b consensus strain Con1) lacking 21 C-terminal residues was amplified from plasmid pFKI389/ns3-3′ (Genbank accession no. AJ242654), plasmid pCV-H77C (Genbank accession no. AF 011751.1) and subcloned into the pET21b plasmid as described previously (Pauwels et al. J. Virol., 2007). The NS5BΔC21 expression constructs were transformed into E. coli Rosetta 2 (DE3) (Novagen, Madison, Wis.). One hundred milliliters of LB-medium supplemented with carbenicillin (50 μg/mL) and chloramphenicol (34 μg/mL) was inoculated with one colony, grown overnight, and transferred to fresh LB-medium supplemented with 3% ethanol, carbenicillin and chloramphenicol, at a ratio of 1:200. Cells were grown to an optical density at 600 nm of 0.6, after which the expression cultures were shifted to a growth temperature of 20° C. following induction with ispopropyl-1-thio-β-D-galactopyranoside and MgCl2 at a final concentration of 0.4 mM and 10 μM, respectively. After 18 h of induction, cells were harvested by centrifugation and resuspended in 20 mM Tris-HCl, pH 7.5, 300 mM NaCl, 10% glycerol, 0.1% NP40, 4 mM MgCl2, 5 mM DTT supplemented with EDTA-free Complete Protease Inhibitor (Roche, Basel, Switzerland). Cell suspensions were disrupted by sonication and incubated with 10-15 mg/L of DNase I (Roche, Basel, Switzerland) for 30 min. Cell debris was removed through ultracentrifugation at 30,000×g for 1 hour and clarified cell lysate was flash frozen and stored at −80° C. prior to purification.
Clarified cell lysate was thawed and subsequently loaded onto a 5 mL pre-packed HisTrap FF column equilibrated with 25 mM HEPES, pH 7.5, 500 mM NaCl, 10% glycerol and 5 mM DTT. Proteins were eluted with 500 mM imidazole at a flow rate of 1 mL/min. Fractions containing the protein of interest were applied onto a pre-packed 26/10 HiPrep Desalting Column equilibrated with 25 mM HEPES, pH 7.5, 250 mM NaCl, 10% glycerol and 5 mM DTT. The buffer-exchanged NS5B peak was then applied onto a 6 ml Resource S column. Protein was eluted with an increasing salt gradient and fractions collected. Protein purity was assessed on Nu-PAGE pre-cast gels (Invitrogen, Carlsbad, Calif.). Purified NS5B samples were concentrated using Centri-Prep concentrators (Millipore, Billerica, Mass., USA) and protein concentrations were determined by spectrofotometry with the Nanodrop (Nanodrop Technologies, Wilmington, Del., USA).
Measurement of HCV NS5B polymerization activity was performed by evaluating the amount of radio labeled GTP incorporated by the enzyme in a newly synthesized RNA using […] RNA template/primer. The RdRp assay was carried out in 384-well plates. 2.5 nM of purified NS5B enzyme was pre-incubated for 10 min with 150 nM 5′-biotinylated oligo(rG13) primer, 15 nM poly(rC) template, in 18 mM Tris-HCl, pH 7.5, 5 mM MgCl2, 20.5 mM KCl, 17 mM NaCl and 2.5 mM of DTT. The test compounds were the added to the preformed polymerase-template complex, and incubated at room temperature for 15 min before the addition 600 nM of GTP, and 0.13 μCi of [^3H]GTP. 30 μL reaction mixture was incubated at room temperature for 2 h before stopping the reaction by adding 30 μL of streptavidin coated SPA-beads (GE Healthcare, Uppsala, Sweden) in 0.5 M EDTA. […] IC50 values represent the concentration of compound required to decrease by 50% the amount of RNA produced which is measured by the detection of incorporated radiolabeled GTP.

[5] = target: T2, NS5B wild-type enzyme genotype 1a (Hepatitis C virus genotype 1a, UniProt P27958); assay: Enzyme binding assay (SPR, Biacore), genotype 1a; parameters: species or system HCV genotype 1a; settings: for kon / t1/2 (dissociative half-life): genotype 1a; for kon: SPR, 25° C.; for t1/2 (dissociative half-life): t1/2=ln(2)/koff
T2 construct: The purified HIS6-tagged NS5BΔC21 polymerases were immobilized; made in house; host or cells: E. coli Rosetta 2 (DE3)
T2 sequence (P27958 2421-2990): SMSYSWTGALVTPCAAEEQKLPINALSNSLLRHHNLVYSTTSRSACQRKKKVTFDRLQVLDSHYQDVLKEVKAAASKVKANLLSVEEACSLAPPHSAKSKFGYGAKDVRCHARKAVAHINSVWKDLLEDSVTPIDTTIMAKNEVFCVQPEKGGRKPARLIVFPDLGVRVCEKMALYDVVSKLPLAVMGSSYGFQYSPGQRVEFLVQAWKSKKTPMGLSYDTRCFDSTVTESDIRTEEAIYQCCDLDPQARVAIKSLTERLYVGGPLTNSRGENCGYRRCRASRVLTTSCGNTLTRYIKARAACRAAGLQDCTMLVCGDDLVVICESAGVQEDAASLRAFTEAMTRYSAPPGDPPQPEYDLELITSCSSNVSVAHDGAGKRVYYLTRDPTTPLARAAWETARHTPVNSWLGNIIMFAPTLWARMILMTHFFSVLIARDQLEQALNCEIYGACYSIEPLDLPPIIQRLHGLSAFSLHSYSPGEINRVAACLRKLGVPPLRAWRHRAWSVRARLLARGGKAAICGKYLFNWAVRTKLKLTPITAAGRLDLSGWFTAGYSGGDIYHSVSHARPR
Description: (§1) The compounds of formula (I) were examined for their enzymatic binding kinetics or affinity using a Surface Plasmon Resonance (SPR)-based method, i.e. Biacore. A slow dissociation of the inhibiting compound from its viral target (low koff, low Kd) is believed to potentially reduce the development of drug resistance against anti-viral drugs (Dierynck et al. 2007. Journal of Virology, vol. 81, No. 24, 13845-13851). All measurements were performed on a Biacore T100 instrument (GE Healthcare). The purified HIS6-tagged NS5BΔC21 polymerases were immobilized using non-covalent capturing to an NTA sensor chip (GE Healthcare) in immobilization buffer (20 mM MOPS pH 7.4, 500 mM NaCl, 0.005% Tween-P20, 1 mM DTT, 50 μM EDTA). Interaction studies were all performed at 25° C. Inhibitors were serially diluted in running buffer (20 mM Tris-HCl pH 7.4, 150 mM NaCl, 50 μM EDTA, 1 mM DTT, 0.005% Tween-P20) containing 5% dimethyl sulfoxide (DMSO). Single-cycle kinetics were used, in which 5 increasing concentrations of compound were injected for a period of 300 s each in 1 single cycle, and dissociation was monitored for a period of 1200 s. The sensor surface was completely regenerated in between the cycles. Data were analyzed using simultaneous nonlinear regression analysis (global fitting) adapted for single-cycle kinetics with Biacore T100 BiaEval evaluation software 2.0 (GE Healthcare). The individual rate constants kon and koff and a derived affinity constant, Kd=koff/kon, were determined by a kinetic evaluation of the sensorgrams. The kinetic models accounted for bulk and limited mass transport effects. Every analysis was performed at least in two independent experiments. The dissociation rate of a kinetic interaction can be translated into a compound residence time (dissociative half-life t1/2=ln(2)/koff) representative for the interaction time between the polymerase and its inhibitor.
(§2) The observed association rate constants (kon), dissociation rate constants (koff), derived affinity constant (Kd) and dissociative half-life (t1/2) measured for compounds of formula (I) or subgroups thereof on NS5B wild-type enzyme genotypes 1a, 1b and 4a are given in Table 2.

[6] = target: T3, NS5B wild-type enzyme genotype 4a (UniProt O39929); assay: Enzyme binding assay (SPR, Biacore), genotype 4a; parameters: species or system HCV genotype 4a; settings: for Kd: Kd=koff/kon; for koff / kon: SPR, 25° C.; for t1/2 (dissociative half-life): t1/2=ln(2)/koff
T3 construct: fused on or other part: His6 tag
Description: as §1, §2

[7] = target: T4, NS5B wild-type enzyme genotype 1b (Hepatitis C virus genotype 1b, UniProt Q9WMX2); assay: Enzyme binding assay (SPR, Biacore), genotype 1b; settings: for koff / kon / t1/2 (dissociative half-life): genotype 1b; for koff / kon: SPR, 25° C.; for t1/2 (dissociative half-life): t1/2=ln(2)/koff
T4 construct: NS5B (genotype 1b consensus strain Con1) lacking 21 C-terminal residues; made in house; host or cells: E. coli Rosetta 2 (DE3)
Description: as §1, §2

SMILES | EC50 [1] [µM] | EC50 [2] [µM] | EC50 [3] [µM] | IC50 [4] [µM] | Kd [5] [µM] | koff [5] [s⁻¹] | kon [5] | t1/2 (dissociative half-life) [5] [min] | Kd [6] [µM] | koff [6] [s⁻¹] | kon [6] | t1/2 (dissociative half-life) [6] [min] | Kd [7] [µM] | koff [7] [s⁻¹] | kon [7] | t1/2 (dissociative half-life) [7] [min]
CN1CCCCCNC(=O)COc2ccccc2-c2c(C3CCCCC3)c3ccc(cc3n2C)C(=O)NS1(=O)=O [Compound 21, 25-cyclohexyl-10,19-dimethyl-5,6,7,8,9,10-hexahydro-2H-14,18:17,20-di(metheno)-1,11,4,10,12,19-benzoxathiatetraazacyclodocosine-3,13(4H,12H,19H)-dione 11,11-dioxide] | 0.055 | 0.095 | 0.123 | 0.148 | – | – | – | – | – | – | – | – | – | – | – | –
CN1CCN2CCN(CC2)C(=O)COc2ccccc2-c2c(C3CCCCC3)c3ccc(cc3n2C)C(=O)NS1(=O)=O [Compound 22, 30-cyclohexyl-12,21-dimethyl-4-oxa-20-thia-1,12,19,21,24-pentaazapentacyclo[22.2.2.1^11,14.1^13,17.0^5,10]triaconta-5,7,9,11(30),13(29),14,16-heptaene-2,18-dione 20,20-dioxide] | 0.156 | 0.201 | 0.164 | 0.181 | – | – | – | – | – | – | – | – | – | – | – | –
CN1CCCCNC(=O)COc2ccccc2-c2c(C3CCCCC3)c3ccc(cc3n2C)C(=O)NS1(=O)=O [Compound 32, 24-cyclohexyl-9,18-dimethyl-4,5,6,7,8,9-hexahydro-13,17:16,19-di(metheno)-1,10,4,9,11,18-benzoxathiatetraazacyclohenicosine-3,12(2H,11H,18H)-dione 10,10-dioxide] | 1.6 | 2.95 | 3.61 | 1.82 | 3.3 | 0.0089 | 3.0E+03 1/MS | 1.3 | 0.45 | 0.0087 | 1.9E+04 1/MS | 1.33 | 1.2 | 0.015 | 1.3E+04 1/MS | 0.783
CN1CCCCN(C)S(=O)(=O)NC(=O)c2ccc3c(C4CCCCC4)c(n(C4CCCC4)c3c2)-c2ccccc2OCC1=O [Compound 40, 24-cyclohexyl-18-cyclopentyl-4,9-dimethyl-4,5,6,7,8,9-hexahydro-13,17:16,19-di(metheno)-1,10,4,9,11,18-benzoxathiatetraazacyclohenicosine-3,12(2H,11H,18H)-dione 10,10-dioxide] | 5.15 | 5.27 | 7.34 | 1.09 | – | – | – | – | – | – | – | – | – | – | – | –
CN1CCCCCNC(=O)COc2cc(F)ccc2-c2c(C3CCCCC3)c3ccc(cc3n2C)C(=O)NS1(=O)=O [Compound 50, 25-cyclohexyl-23-fluoro-10,19-dimethyl-5,6,7,8,9,10-hexahydro-2H-14,18:17,20-di(metheno)-1,11,4,10,12,19-benzoxathiatetraazacyclodocosine-3,13(4H,12H,19H)-dione 11,11-dioxide] | 0.117 | 0.156 | 0.254 | 0.109 | 0.04 | 0.0067 | 1.7E+05 1/MS | 1.72 | 0.0091 | 0.002 | 2.2E+05 1/MS | 5.72 | 0.025 | 0.0006 | 2.3E+04 1/MS | 19.38
CN1CCCCCNC(=O)COc2ccc(F)cc2-c2c(C3CCCCC3)c3ccc(cc3n2C)C(=O)NS1(=O)=O [Compound 51, 25-cyclohexyl-22-fluoro-10,19-dimethyl-5,6,7,8,9,10-hexahydro-2H-14,18:17,20-di(metheno)-1,11,4,10,12,19-benzoxathiatetraazacyclodocosine-3,13(4H,12H,19H)-dione 11,11-dioxide] | – | – | – | 0.088 | 0.039 | 0.0035 | 9.5E+04 1/MS | 3.3 | 0.011 | 0.0022 | 1.9E+05 1/MS | 5.33 | 0.016 | 0.00031 | 2.0E+04 1/MS | 37.38
CC(C)n1c2c(C3CCCCC3)c3ccc(cc31)C(=O)NS(=O)(=O)N(C)CCOCCN(C)C(=O)COc1ccccc1-2 [Compound 52, 25-cyclohexyl-4,10-dimethyl-19-(1-methylethyl)-5,6,9,10-tetrahydro-2H,8H-14,18:17,20-di(metheno)-1,7,11,4,10,12,19-benzodioxathiatetraazacyclodocosine-3,13 (4H,12H,19H)-dione 11,11-dioxide] | 7.14 | 7.96 | 7.66 | 1.66 | – | – | – | – | – | – | – | – | – | – | – | –
